Measured values taken from US20180369264A1, “COMBINATION OF A CARDIAC STEROID AND AN AKT INHIBITOR FOR THE TREATMENT OF CARDIOVASCULAR DISEASES AND DISORDERS” (YISSUM RESEARCH DEVELOPMENT COMPANY OF THE HEBREW …, priority 2015, published 2018).

How the values were obtained:
[1] = test system: zebrafish accordion mutant (acc) larvae heart; assay: In-vivo heart contractility measurements in zebrafish acc mutant larvae; parameters: species or system zebrafish (Danio rerio); conditions: 1 nM, 90 minutes
Procedure: Ouabain, bufalin, digoxin, acetylcholine, carbachol, […] (pp2) and U0126 (1,4-diamino-2,3-dicyano-1,4-bis(2-aminophenylthio)butadiene) were purchased from Sigma-Aldrich Inc., Israel. The compounds were dissolved in egg water (0.3 g Instant Ocean Salt in distilled water) to a final selected concentration, as specified in the following examples. The larvae in 20 μL of E3 medium were transferred to the egg water solution containing one or two of the above specified drugs of choice, and incubated for 60-90 minutes at 28° C.
Filming process Zebrafish larvae heart imaging was performed using an Olympus CKX41 (Japan) […] microscope with ×10 or ×20 magnification, and integrated incandescent illumination. A FastCam imi-tech (Korea) high speed digital camera with 640×480 pixel gray scale image sensor was mounted on the microscope, using ImCam software (IMI Technology, Co. Ltd) for high speed video recording. The larvae were anesthetized by placing them in filming/anesthetizing medium. Each larva in 0.5 ml filming/anesthetizing medium was transferred to a 96-well tissue culture plate at room temperature and sequential images of the heart were obtained, with the larvae positioned on their side, at 80 fps during 10 seconds with a shutter speed of 0.016 seconds.
Physiological parameters of cardiovascular performance, as indicated hereinbelow, were evaluated in the zebrafish larvae. […] Sequential still frames were analyzed to capture ventricular end-systole and end-diastole images. […] The Ejection Fraction (EF) was determined by an independent estimate of ventricular volume. […] EF was then calculated according to the equation: EF=(EDV-ESV)/EDV*100. Heart rate (HR) was measured in beats per minute. Cardiac output (CO) was calculated according to the equation: CO=(EDV-ESV)*HR. A minimum of five sequential pairs of systolic and diastolic cycles were measured and analyzed in 9-12 larvae for each treatment.

ERK = ERK phosphorylation in adult zebrafish heart (Western blot); format: in vivo; conditions: wt adult zebrafish, 1 μM in swimming media, 5 minutes
Procedure: (§1) Adult zebrafish (˜12-months-old) were transferred to swimming medium containing 1 μM of CS drugs, as specified in the following examples. At various time points (5-30 min), as indicated in the following examples, the zebrafish were transferred to perfusion buffer and the hearts were immediately removed and transferred to RIPA lysis buffer (Sigma-Aldrich), and protease inhibitor cocktail (P8340, Sigma-Aldrich), at a 1:100 dilution). The tissue was homogenized in an ultrasonic homogenizer (Microson, NY, USA) and aliquots of the homogenate were stored at −70° C. until used.
Protein dilution and separation on SDS-PAGE electrophoresis, their transfer to a polyvinylidene fluoride membrane were carried out. […] The membranes were washed with TBS containing 0.1% Tween and exposed to horseradish peroxidase-conjugated secondary goat anti-rabbit IgG antibody (1:50,000). The membranes were stripped prior to their exposure to a different antibody. Detection was carried out with the aid of a Luminata™ Crescendo Western HRP Substrates, according to the manufacturer's instructions.

Akt = Akt phosphorylation in adult zebrafish heart (Western blot); format: in vivo; conditions: wt adult zebrafish, 1 μM in swimming media, 5 minutes
Procedure: as §1
Protein dilution and separation on SDS-PAGE electrophoresis, their transfer to a polyvinylidene fluoride membrane were carried out. The membranes were incubated for 1 hour at room temperature with one of the specific antibodies against Phospho-p44/42 MAPK (Erk1/2) (Thr202/Tyr204), Rabbit mAb #4370 (Cell signaling) or Phospho-Akt (Ser473) (193H12), Rabbit mAb #4058 (Cell signaling), at a 1:1000 dilution in TBS containing 0.1% Tween. The membranes were washed with TBS containing 0.1% Tween and exposed to horseradish peroxidase-conjugated secondary goat anti-rabbit IgG antibody (1:50,000). The membranes were stripped prior to their exposure to a different antibody. Detection was carried out with the aid of a Luminata™ Crescendo Western HRP Substrates, according to the manufacturer's instructions.

## C[C@@H]1O[C@@H](O[C@H]2C[C@@H](O)[C@]3(CO)[C@H]4[C@H](O)C[C@]5(C)[C@@H](C6=CC(=O)OC6)CC[C@]5(O)[C@@H]4CC[C@]3(O)C2)[C@H](O)[C@H](O)[C@H]1O [ouabain, 3-(alpha-L-Rhamnopyranosyloxy)-1beta,5beta,11alpha,14,19-pentahydroxy-5beta-card-20(22)-enolide]
[1]
  effect on heart contractility: no effect on heart contractility
ERK
  increase in ERK phosphorylation in the heart: 130±17.95%
Akt
  increase in Akt phosphorylation in the heart: 100±20.06%
